Read-outs that look alike come from different tables or passages of the source.
How the values were obtained:
[1] = tested on: NCI-60 human cancer cell line panel; assay: NCI-60 initial one dose test; type: cell-based; details: 10 μM
From the text: (§1) Biological evaluation. The synthesized epothilone analogues were submitted to the NCI for testing against the NCI-60 human cancer cell line panel (Shoemaker, 2006).

[2] = tested on: tubulin; assay: Induction/enhancement of tubulin assembly (Lin, et al., 1996); type: biochemical; details: 10 μM tubulin, 0.4M monosodium glutamate, 30 min at room temperature; Table 2; read-out: induction of tubulin assembly (EC50, μM ± SD)
[3] = tested on: MCF-7; assay: Cytotoxicity, standard NCI assay with sulforhodamine B, 96 h; details: Homo sapiens, MCF7, 96 h, read-out: cytotoxicity (GI50, nM ± SD) MCF-7
[4] = tested on: OVCAR-8; assay: as above; details: Homo sapiens, OVCAR-8, 96 h, read-out: cytotoxicity (GI50, nM ± SD) OVCAR-8
[5] = tested on: A498; assay: NCI-60 human cancer cell line panel, five dose screen; type: cell-based; details: NCI-60 five dose screen
From the text: as §1

[6] = tested on: A549/ATCC; assay: as above; type: cell-based; details: NCI-60 five dose screen
From the text: as §1

[7] = tested on: CCRF-CEM; assay: as above; type: cell-based; details: NCI-60 five dose screen
From the text: as §1

[8] = tested on: COLO 205; assay: as above; type: cell-based; details: NCI-60 five dose screen
From the text: as §1

[9] = tested on: HCT-116; assay: as above; type: cell-based; details: NCI-60 five dose screen
From the text: as §1

[10] = tested on: HCT-15; assay: as above; type: cell-based; details: NCI-60 five dose screen
From the text: as §1

[11] = tested on: HL-60(TB); assay: as above; type: cell-based; details: NCI-60 five dose screen
From the text: as §1

[12] = tested on: HOP-92; assay: as above; type: cell-based; details: NCI-60 five dose screen
From the text: as §1

[13] = tested on: HS 578T; assay: as above; type: cell-based; details: NCI-60 five dose screen
From the text: as §1

[14] = tested on: HT29; assay: as above; type: cell-based; details: HT-29, NCI-60 five dose screen
From the text: as §1

[15] = tested on: K-562; assay: as above; type: cell-based; details: K562, NCI-60 five dose screen
From the text: as §1

[16] = tested on: KM12; assay: as above; type: cell-based; details: NCI-60 five dose screen
From the text: as §1

[17] = tested on: LOX IMVI; assay: as above; type: cell-based; details: NCI-60 five dose screen
From the text: as §1

[18] = tested on: M14; assay: as above; type: cell-based; details: NCI-60 five dose screen
From the text: as §1

[19] = tested on: MCF7; assay: as above; type: cell-based; details: NCI-60 five dose screen
From the text: as §1

[20] = tested on: MDA-MB-435; assay: as above; type: cell-based; details: NCI-60 five dose screen
From the text: as §1

[21] = tested on: MDA-MB-468; assay: as above; type: cell-based; details: NCI-60 five dose screen
From the text: as §1

[22] = tested on: MOLT-4; assay: as above; type: cell-based; details: NCI-60 five dose screen
From the text: as §1

[23] = tested on: NCI-H23; assay: as above; type: cell-based; details: NCI-60 five dose screen
From the text: as §1

[24] = tested on: NCI-H460; assay: as above; type: cell-based; details: NCI-60 five dose screen
From the text: as §1

[25] = tested on: OVCAR-3; assay: as above; type: cell-based; details: NCI-60 five dose screen
From the text: as §1

[26] = tested on: PC-3; assay: as above; type: cell-based; details: NCI-60 five dose screen
From the text: as §1

[27] = tested on: RPMI-8226; assay: as above; type: cell-based; details: NCI-60 five dose screen
From the text: as §1

[28] = tested on: RXF 393; assay: as above; type: cell-based; details: NCI-60 five dose screen
From the text: as §1

[29] = tested on: SF-539; assay: as above; type: cell-based; details: NCI-60 five dose screen
From the text: as §1

[30] = tested on: SK-MEL-5; assay: as above; type: cell-based; details: NCI-60 five dose screen
From the text: as §1

[31] = tested on: SNB-75; assay: as above; type: cell-based; details: NCI-60 five dose screen
From the text: as §1

[32] = tested on: SR; assay: as above; type: cell-based; details: NCI-60 five dose screen
From the text: as §1

[33] = tested on: SW-620; assay: as above; type: cell-based; details: NCI-60 five dose screen
From the text: as §1

[34] = tested on: U251; assay: as above; type: cell-based; details: U-251, NCI-60 five dose screen
From the text: as §1

Compound | activity in initial one dose test [1] | EC50 [2] [µM] | GI50 [3] [nM] | GI50 [4] [nM] | GI50 [5] [nM] | GI50 [6] [nM] | GI50 [7] [nM] | GI50 [8] [nM] | GI50 [9] [nM] | GI50 [10] [nM] | GI50 [11] [nM] | GI50 [13] [nM] | GI50 [14] [nM] | GI50 [15] [nM] | GI50 [16] [nM] | GI50 [17] [nM] | GI50 [18] [nM] | GI50 [19] [nM] | GI50 [20] [nM] | GI50 [21] [nM] | further results
C/C(=C\c1cc(C(F)(F)F)nn1CCNC(=O)OCC[Si](C)(C)C)[C@@H]1C[C@@H]2O[C@]2(C)CCC[C@H](C)[C@H](O)[C@@H](C)C(=O)C(C)(C)[C@@H](O)CC(=O)O1 [Compound 7] | did not exhibit significant activity | > 40 | 1800 | 1300 | – | – | – | – | – | – | – | – | – | – | – | – | – | – | – | – | –
C/C(=C\c1cc(C(F)(F)F)nn1CCNC(=O)OC(C)(C)C)[C@@H]1C[C@@H]2O[C@]2(C)CCC[C@H](C)[C@H](O)[C@@H](C)C(=O)C(C)(C)[C@@H](O)CC(=O)O1 [Compound 6] | did not exhibit significant activity | > 40 | 4400 | 1200 | – | – | – | – | – | – | – | – | – | – | – | – | – | – | – | – | –
C/C(=C\c1ccn(-c2ccc(N)cc2F)n1)[C@@H]1C[C@@H]2O[C@]2(C)CCC[C@H](C)[C@H](O)[C@@H](C)C(=O)C(C)(C)[C@@H](O)CC(=O)O1 [Compound 14] | – | 19 ± 1 | 14 ± 2 | 38 ± 10 | 80.2 | 37.6 | 13.6 | 18.2 | 17.1 | 22.6 | 14.1 | 37.2 | 18.4 | 20.7 | 17.7 | 23.1 | 18.7 | 14 | 8.35 | 20.9 | GI50 ([12]; dash defined by footnote e, read-out: GI50 (symbol)): > 100 nM; GI50 [22]: 28.3 nM; GI50 [23]: 24.2 nM; GI50 [24]: 20.8 nM; GI50 [25]: 17.6 nM; GI50 [26]: 25.8 nM; GI50 [27]: 19.6 nM; GI50 [28]: 30.6 nM; GI50 [29]: 26.2 nM; GI50 [30]: 18 nM; GI50 [31]: 11.7 nM; GI50 [32]: 29.2 nM; GI50 [33]: 23.6 nM; GI50 [34]: 36.2 nM
CSc1cc(/C=C(\C)[C@@H]2C[C@@H]3O[C@]3(C)CCC[C@H](C)[C@H](O)[C@@H](C)C(=O)C(C)(C)[C@@H](O)CC(=O)O2)n(CCNC(=O)OC(C)(C)C)n1 [Compound 5] | did not exhibit significant activity | > 40 | 1600 | 900 | – | – | – | – | – | – | – | – | – | – | – | – | – | – | – | – | –
C/C(=C\c1ccn(-c2ccc(N)cc2)n1)[C@@H]1C[C@@H]2O[C@]2(C)CCC[C@H](C)[C@H](O)[C@@H](C)C(=O)C(C)(C)[C@@H](O)CC(=O)O1 [Compound 8] | – | 15 ± 4 | 10 | 38 ± 10 | 102 | 36.9 | 34.1 | 18.6 | 18.7 | 26.7 | 15.8 | 44 | 19.6 | 24.7 | 19.2 | 23.6 | 19.2 | 15.2 | 8.09 | 39.2 | GI50 ([12]; read-out: GI50): 146 nM; GI50 [22]: 38.9 nM; GI50 [23]: 25.2 nM; GI50 [24]: 20.5 nM; GI50 [25]: 18.1 nM; GI50 [26]: 30.4 nM; GI50 [27]: 21.3 nM; GI50 [28]: 38.4 nM; GI50 [29]: 19 nM; GI50 [30]: 20 nM; GI50 [31]: 11.4 nM; GI50 [32]: 30.3 nM; GI50 [33]: 25 nM; GI50 [34]: 35.6 nM
